{"source": "patent US10281467B2", "about": "“Screening assays to identify compounds which modulate T1R associated taste modalities which eliminate false positives” (SENOMYX, INC., priority 2013, dated 2019)", "origin": "cited, not measured here", "system": "sweet taste", "settings": "more potent/sweet than sucrose"}
{"compound": "C=C(C)[C@@H]1CC=C(/C=N/O)CC1", "note": "[Perillartine]", "values": [{"measurement": "potency/sweetness relative to sucrose", "value": "approximately 370 times"}]}
